# Results taken from publication PMC4829348 (Journal of medicinal chemistry, 2016).
# Molecular target: WT A/M2 protein (Influenza A virus, UniProt P0DOF5)
# Assay: biochemical
# Details: read-out: % WT inhibition
# WT A/M2 protein, sequence (P0DOF5 whole entry): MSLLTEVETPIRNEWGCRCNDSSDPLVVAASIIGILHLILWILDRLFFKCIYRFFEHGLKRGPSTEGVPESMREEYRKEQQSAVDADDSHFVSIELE
row,Compound,inhibition at 100 µM
1,c1ccc(-c2nc(CNC34CC5CC(CC(C5)C3)C4)cs2)cc1 [26i],0%
2,Oc1ccc(NC23CC4CC(CC(C4)C2)C3)c(O)c1 [compound 5],64%
